According to patent US20240398844A1, “PHENYLCOUMARINS FOR TREATING INFLAMMATION” (Ohio State Innovation Foundation, priority 2021, published 2024):
“Also recorded” adds a separate entry of the source.

How the values were obtained:
HbA1C = test: Diabetic zebrafish Western blot, HbA1C expression; type: in vivo
Method: (§1) Alloxan-induced diabetic zebrafish were treated with compounds for immunoblot to validate the newly developed animal model, determine the antidiabetic potential of natural product leads, evaluate glucose metabolism, and discover possible mechanisms of action.
At 72 hpf, naturally dechorionated zebrafish were sorted into a 24-well microplate with 10 fish per well. Type 2 diabetes was induced with the diabetogenic agent alloxan at a dose of 0.5 mg/mL in system water for 3 hours. […] After 3 hours of treatment with natural product samples, 10 mg/mL D-glucose was administered in system water for 30 minutes, followed by 1 hour in fresh system water to metabolize the glucose and natural product leads. Upon completion of the 4-phase treatment cycle, zebrafish treatment groups were snap frozen into individual microcentrifuge tubes on dry ice, stored overnight at −80° C., thawed, homogenized with 2 μL PBS per animal, and centrifuged at 4° C. for 1 hour at 17,000 rpm. Protein content of homogenate supernatant was determined using the Pierce BCA Protein Assay kit (Pierce Biotechnology) and bovine serum albumin (BSA) standard curve. Absorbance of protein solutions from zebrafish homogenates and serial dilutions of the BSA standard were measured at 544 nm, using a FLUOstar Optima plate reader (BMG Labtechnologies GmbH, Inc.). Homogenates were analyzed by Western blot. Equal amounts of protein (20 μg) were combined with 4× lithium dodecyl sulphate (LDS) loading buffer (NuPAGE, Life Technologies, Carlsbad, CA, USA), brought to volume (15 μL) with PBS, and heated to 95° C. for 5 minutes. Proteins were resolved using NuPAGE Bis-Tris 4-12% gradient sodium dodecyl sulfate polyacrylamide gel electrophoresis (SDS-PAGE) gels together with SeeBlue Plus2 Pre-Stained Standard Ladder (Life Technologies).
(§2) Electrophoresis was performed using NuPAGE MES SDS Running Buffer and XCell SureLock Mini-Cell Electrophoresis System (Life Technologies). Separated proteins were transferred from the gel to a polyvinylidene fluoride (PVDF) membrane using tris buffered saline with Tween-20 (TBST) buffer. The blots were blocked in 3% BSA in TBST and subsequently probed using primary antibodies (1:1000 in 1% BSA in TBST) against each target overnight (Table 1). The secondary, horseradish peroxidase (HRP) conjugated antibodies (1:2000) were obtained from Santa Cruz Biotechnology Inc., (Santa Cruz, CA, USA). Conjugated antibodies were detected using SuperSignal West Femto chemiluminescent substrate from Pierce Biotechnology. Western blots were visualized, and images captured using a luminometer and LumiAnalyst 3.0 software (Boehringer-Mannheim, Mannheim, Germany). Band density was quantified for proteins of interest using ImageJ Gel Analysis.
In the case of duplicate blots, the band density results were expressed in bar graphs as the mean±standard error of the mean (SEM) of two independent experiments. Due to the labor- and time-intensive aspect of Western blot analysis with multiple target proteins, a maximum of two independent immunoblot experiments were performed per compared sample set. […] Additionally, treatment groups were also evaluated versus the diabetic, untreated control group for significance by Student's f-test and indicated in the bar graphs with p values represented by *p<0.05, **p<0.01, and ***p<0.001. […]

PPAR-γ = test: Diabetic zebrafish Western blot, PPAR-γ expression; type: in vivo; conditions: for PPAR-γ expression, dose dependence: diabetic zebrafish, 10, 5, and 1 μM
Method: as §1
(§3) At 72 hpf, naturally dechorionated zebrafish were sorted into a 24-well microplate with 10 fish per well. Type 2 diabetes was induced with the diabetogenic agent alloxan at a dose of 0.5 mg/mL in system water for 3 hours. The incubation solution was changed to 0.01% DMSO in system water with compounds at concentrations of 20 μg/mL or […], respectively. After 3 hours of treatment with natural product samples, 10 mg/mL D-glucose was administered in system water for 30 minutes, followed by 1 hour in fresh system water to metabolize the glucose and natural product leads. Upon completion of the 4-phase treatment cycle, zebrafish treatment groups were snap frozen into individual microcentrifuge tubes on dry ice, stored overnight at −80° C., thawed, homogenized with 2 μL PBS per animal, and centrifuged at 4° C. for 1 hour at 17,000 rpm. Protein content of homogenate supernatant was determined using the Pierce BCA Protein Assay kit (Pierce Biotechnology) and bovine serum albumin (BSA) standard curve. Absorbance of protein solutions from zebrafish homogenates and serial dilutions of the BSA standard were measured at 544 nm, using a FLUOstar Optima plate reader (BMG Labtechnologies GmbH, Inc.). Homogenates were analyzed by Western blot. Equal amounts of protein (20 μg) were combined with 4× lithium dodecyl sulphate (LDS) loading buffer (NuPAGE, Life Technologies, Carlsbad, CA, USA), brought to volume (15 μL) with PBS, and heated to 95° C. for 5 minutes. Proteins were resolved using NuPAGE Bis-Tris 4-12% gradient sodium dodecyl sulfate polyacrylamide gel electrophoresis (SDS-PAGE) gels together with SeeBlue Plus2 Pre-Stained Standard Ladder (Life Technologies).
as §2, with “Western blots were visualized, and images captured using a luminometer and LumiAnalyst 3.0 software (Boehringer-Mannheim, Mannheim, Germany).” left out, “Analysis. […]” for “Analysis.”

PEPCK = test: Diabetic zebrafish Western blot, PEPCK expression; type: in vivo; conditions: 10 μM, FIG. 8
Method: as §1, §3
as §2, with “Western blots were visualized, and images captured using a luminometer and LumiAnalyst 3.0 software (Boehringer-Mannheim, Mannheim, Germany).” left out, “Analysis. […]” for “Analysis.”

GLUT-4 = test: Diabetic zebrafish Western blot, GLUT-4 expression; type: in vivo; conditions: 10 μM, FIG. 5
Method: as §1
as §3, with “Proteins were resolved using NuPAGE Bis-Tris 4-12% gradient sodium dodecyl sulfate polyacrylamide gel electrophoresis (SDS-PAGE) gels together with SeeBlue Plus2 Pre-Stained Standard Ladder (Life Technologies).” left out
Electrophoresis was performed using NuPAGE MES SDS Running Buffer and XCell SureLock Mini-Cell Electrophoresis System (Life Technologies). […] Conjugated antibodies were detected using SuperSignal West Femto chemiluminescent substrate from Pierce Biotechnology. […] Band density was quantified for proteins of interest using ImageJ Gel Analysis. […]

[1] = Solubility in NMR solvents; type: physicochemical; conditions: CD3OD
Method: Solubility of the fractions was a challenge, and chloroform-d (CDCl3), […], methanol-d4 (CD3OD), dimethyl sulfoxide-d6, and water-d2 (D2O) (Cambridge Isotope Laboratories, Tewksbury, MA, USA) were all tried as solvents. […] Since there was only 1.5 mg of material, further purification and structure elucidation were not pursued.
Fraction 3 was most soluble in D2O, and at approximately 11 mg/mL, ^1H and ^13C NMR data were obtained in an effort to confirm the presence of an isopropyl ether derivative (40). However, solubility of fraction 3 continued to be problematic even in D2O. Further acquisition attempts with increased probe temperature (310 K) were no more successful at keeping the compound (40) in solution.

[2] = diabetic zebrafish, 10, 5, and 1 μM (rosiglitazone 10 μM), duplicate blots, FIG. 7

SMILES | HbA1C expression (Western blot band density) (HbA1C; diabetic zebrafish, 10 μM, library screen, FIG. 2 / FIG. 11) | HbA1C expression (Western blot band density) (HbA1C; [2]) | PPAR-γ expression (Western blot band density) (PPAR-γ; diabetic zebrafish, 10 μM, library screen, FIG. 3 / FIG. 11) | PPAR-γ expression, dose dependence (PPAR-γ; FIG. 9) | PPAR-γ expression versus rosiglitazone (PPAR-γ; diabetic zebrafish, same concentration (10 μM), FIG. 9) | PEPCK expression versus rosiglitazone (PEPCK) | GLUT-4 expression (Western blot) (GLUT-4) | solubility (relative) [1]
COc1cc(O[C@@H]2O[C@H](CO[C@@H]3OCC(O)(CO)[C@H]3O)[C@@H](O)[C@H](O)[C@H]2O)c2c(-c3ccc(O)c(O)c3)cc(=O)oc2c1 (stereo partly drawn) [Compound 24, 5-O-[β-D-apiofuranosyl-(1→6)-β-D-glucopyranosyl]-7-methoxy-3′,4′-dihydroxy-4-phenylcoumarin] | most effective in reducing glycated hemoglobin | reduced glycated hemoglobin levels in comparison to rosiglitazone | greater PPAR-7 expression than the PPAR-γ positive control; also recorded: greatest PPAR-γ activation surpassing even the positive control thiazolidinedione | dose-dependent activation of PPAR-γ | greater PPAR-γ expression than the FDA-approved PPAR-γ agonist | greater gluconeogenic effect than rosiglitazone | strong GLUT-4 expression | 
COc1cc(O[C@@H]2OCC(O)(CO[C@@H]3OC(CO)[C@@H](O)C(O)C3O)C2O)c2c(-c3ccc(OC(C)C)c(O)c3)cc(=O)oc2c1 (single isomer, unassigned) [Compound 40] |  | lacking a dose-dependent response |  | dose-dependent activation of PPAR-γ; also recorded: not as effective as 24 |  | approximately equal efficacy to rosiglitazone |  | even less soluble than 24
